The text below walks through data of PubChem BioAssay AID248 (DTP/NCI, 2004).

The subject of the assay is L1210 leukemia ip in BDF1 mice, survival T/C. Nature of the assay: NCI In Vivo Anticancer Drug Screen. Data for tumor model L1210 Leukemia (intraperitoneal) in B6D2F1 (BDF1) mice. The settings on record: endpoint: mean survival time, higher = longer survival. The gist of the method: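 Tumor cells were implanted, animals were treated, and survival was followed. The result divides the treated measurement by the vehicle-control measurement.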

Where [1] appears, read: dose: 100.0 mg/kg/injection, schedule: Q04DX002 (ip), vehicle: Klucel (hydroxypropylcellulose) (HPC).
Setting [2] is: dose: 200.0 mg/kg/injection, schedule: Q04DX002 (ip), vehicle: Klucel (hydroxypropylcellulose) (HPC).
Where [3] appears, read: dose: 100.0 mg/kg/injection, schedule: Q01DX009 (ip), vehicle: Klucel (hydroxypropylcellulose) (HPC).
Setting [4] is: dose: 200.0 mg/kg/injection, schedule: Q01DX009 (ip), vehicle: Klucel (hydroxypropylcellulose) (HPC).
[5] abbreviates: dose: 12.5 mg/kg/injection, schedule: Q01DX009 (ip), vehicle: Klucel (hydroxypropylcellulose) (HPC).
The mark [6] stands for this setting: dose: 100.0 mg/kg/injection, schedule: Q01DX009 (ip), vehicle: saline.
Where [7] appears, read: dose: 100.0 mg/kg/injection, schedule: Q04DX003 (ip), vehicle: saline.
Setting [8] is: dose: 100.0 mg/kg/injection, schedule: Q04DX003 (ip), vehicle: saline with Tween-80.
The mark [9] stands for this setting: dose: 200.0 mg/kg/injection, schedule: Q04DX003 (ip), vehicle: saline with Tween-80.
The mark [10] stands for this setting: dose: 400.0 mg/kg/injection, schedule: Q04DX003 (ip), vehicle: saline with Tween-80.
Where [11] appears, read: dose: 75.0 mg/kg/injection, schedule: Q01DX001 (ip), vehicle: saline.
Setting [12] is: dose: 150.0 mg/kg/injection, schedule: Q01DX001 (ip), vehicle: saline.
[13] abbreviates: dose: 100.0 mg/kg/injection, schedule: Q01DX001 (ip), vehicle: other.
Where [14] appears, read: dose: 200.0 mg/kg/injection, schedule: Q01DX001 (ip), vehicle: other.
Where [15] appears, read: dose: 400.0 mg/kg/injection, schedule: Q01DX001 (ip), vehicle: other.

Each structure is given as a SMILES string. “And” between values parts separate entries of the source, which are not always exact repeats. Equal entries are not always repeated. Inconclusive results and toxic doses are left out.

As to `O=C(CC1OC1c1ccccc1)c1ccccc1` (stereo unspecified), the T/C is, setting by setting: (dose: 50.0 mg/kg/injection, schedule: Q01DX001 (ip), vehicle: Klucel (hydroxypropylcellulose) (HPC)) 110 % of control; (dose: 100.0 mg/kg/injection, schedule: Q01DX001 (ip), vehicle: Klucel (hydroxypropylcellulose) (HPC)) 100 % of control; (dose: 100.0 mg/kg/injection, schedule: Q04DX003 (ip), vehicle: other) 99 % of control; (dose: 200.0 mg/kg/injection, schedule: Q01DX001 (ip), vehicle: Klucel (hydroxypropylcellulose) (HPC)) 102 % of control; (dose: 200.0 mg/kg/injection, schedule: Q04DX003 (ip), vehicle: other) 94 % of control; (dose: 400.0 mg/kg/injection, schedule: Q04DX003 (ip), vehicle: other) 101 % of control.
On to `CC(=O)OC1CCC2(C)C(=CC=C3C2CCC2(C)C(C(C)=O)CCC32)C1` (stereo unspecified), for which the T/C runs as follows: under setting [1], 86 % of control; under setting [2], 110 % of control; (dose: 400.0 mg/kg/injection, schedule: Q04DX002 (ip), vehicle: Klucel (hydroxypropylcellulose) (HPC)) 104 % of control.
Turning to `Cc1ccc(C)c(CNC(=O)Nc2ccccc2Cl)c1`, the T/C under setting [3] was 97 % of control and the T/C under setting [4] is 101 % of control.
For the molecule `CCCCN(C)N=Nc1ccc(CCCC(=O)OCC)cc1`, the T/C is, setting by setting: under setting [5], 108 % of control; (dose: 20.0 mg/kg/injection, schedule: Q01DX009 (ip), vehicle: saline) 107 % of control; (dose: 25.0 mg/kg/injection, schedule: Q01DX009 (ip), vehicle: Klucel (hydroxypropylcellulose) (HPC)) 106 % of control; (dose: 35.0 mg/kg/injection, schedule: Q01DX009 (ip), vehicle: saline) 121 % of control; (dose: 50.0 mg/kg/injection, schedule: Q01DX009 (ip), vehicle: Klucel (hydroxypropylcellulose) (HPC)) 110 % of control; (dose: 50.0 mg/kg/injection, schedule: Q01DX009 (ip), vehicle: saline) 195 % of control. Besides, the T/C is, setting by setting: (dose: 55.0 mg/kg/injection, schedule: Q01DX009 (ip), vehicle: saline) 101 % of control and 109 % of control; (dose: 84.0 mg/kg/injection, schedule: Q01DX009 (ip), vehicle: saline) 107 % of control and 115 % of control; under setting [3], 123 % of control; under setting [6], 101 % of control; under setting [7], 119 % of control; (dose: 125.0 mg/kg/injection, schedule: Q01DX009 (ip), vehicle: saline) 114 % of control and 119 % of control.
On to `O=C(CC(O)(C(F)(F)Cl)C(F)(F)Cl)c1cccc([N+](=O)[O-])c1`, for which the T/C by setting is: (dose: 50.0 mg/kg/injection, schedule: Q01DX009 (ip), vehicle: saline with Tween-80) 98 % of control; (dose: 50.0 mg/kg/injection, schedule: Q04DX003 (ip), vehicle: saline with Tween-80) 98 % of control; (dose: 100.0 mg/kg/injection, schedule: Q01DX009 (ip), vehicle: saline with Tween-80) 98 % of control; under setting [8], 98 % of control; (dose: 200.0 mg/kg/injection, schedule: Q01DX009 (ip), vehicle: saline with Tween-80) 95 % of control; under setting [9], 98 % of control. Also, under setting [10], the T/C was 89 % of control.
With `COc1cc2c(cc1OC)C(CCC(=O)O)=NCC2`, the T/C runs as follows: (dose: 12.5 mg/kg/injection, schedule: Q04DX002 (ip), vehicle: saline) 101 % of control; (dose: 25.0 mg/kg/injection, schedule: Q04DX002 (ip), vehicle: saline) 104 % of control; (dose: 50.0 mg/kg/injection, schedule: Q04DX002 (ip), vehicle: saline) 90 % of control.
On to `O=c1[nH]c(=S)[nH]c2c1CP(=S)(c1ccccc1)CC2` (stereo unspecified), for which the T/C by setting is: (dose: 100.0 mg/kg/injection, schedule: Q04DX002 (ip), vehicle: saline with Tween-80) 106 % of control; (dose: 200.0 mg/kg/injection, schedule: Q04DX002 (ip), vehicle: saline with Tween-80) 100 % of control; (dose: 400.0 mg/kg/injection, schedule: Q04DX002 (ip), vehicle: saline with Tween-80) 100 % of control.
`O=NN(CCF)C(=O)NC1CCCCCCCCCCC1`: the T/C is 108 % of control (dose: 40.0 mg/kg/injection, schedule: Q01DX001 (ip), vehicle: other) and 112 % of control (dose: 60.0 mg/kg/injection, schedule: Q01DX001 (ip), vehicle: other).
`CC(C(=O)c1ccccc1)C(O)(C(F)(F)F)C(F)(F)F` (stereo unspecified): the T/C under setting [8] was 97 % of control, the T/C under setting [9] is 97 % of control and the T/C under setting [10] was 99 % of control.
As for `Cc1c(C)c(N)c(C)c(C)c1N`, the T/C reads like this: (dose: 6.25 mg/kg/injection, schedule: Q01DX009 (ip), vehicle: Klucel (hydroxypropylcellulose) (HPC)) 94 % of control; under setting [5], 94 % of control; (dose: 12.5 mg/kg/injection, schedule: Q04DX003 (ip), vehicle: Klucel (hydroxypropylcellulose) (HPC)) 101 % of control.
For `Nc1nc(=S)[nH]c2nsnc12`, the T/C runs as follows: under setting [8], 98 % of control; under setting [9], 96 % of control; under setting [10], 103 % of control.
`CCN1c2c(nc(N)[nH]c2=O)NCC1CNc1ccc(C(=O)NC(CCC(=O)O)C(=O)O)cc1` (stereo unspecified): the T/C under setting [6] was 103 % of control; the T/C under setting [7] was 108 % of control; the T/C (dose: 200.0 mg/kg/injection, schedule: Q01DX009 (ip), vehicle: saline) was 115 % of control; the T/C (dose: 200.0 mg/kg/injection, schedule: Q04DX003 (ip), vehicle: saline) is 104 % of control; the T/C (dose: 400.0 mg/kg/injection, schedule: Q01DX009 (ip), vehicle: saline) was 94 % of control; the T/C (dose: 400.0 mg/kg/injection, schedule: Q04DX003 (ip), vehicle: saline) is 103 % of control.
For the molecule `COC(=O)c1n[nH]c(C)c1N=NN(C)C`, the T/C is 119 % of control under setting [11] and 123 % of control under setting [12].
Regarding `CCN(CC)c1ccc(N=C2C=C(C(=O)Nc3ccccc3)C(=O)c3ccccc32)cc1`, the T/C by setting is: under setting [13], 86 % of control; under setting [14], 89 % of control; under setting [15], 88 % of control.
With `O=C(ON(Cc1ccccc1)Cc1ccccc1)c1ccccc1`, the T/C reads like this: under setting [13], 103 % of control; under setting [14], 100 % of control; under setting [15], 103 % of control.
Consider `CCCCN(CCCC)C(=O)c1ccccc1C(=O)O`, for which the T/C is 95 % of control under setting [11]; 95 % of control under setting [1]; 104 % of control under setting [12]; 95 % of control under setting [2]; 103 % of control (dose: 300.0 mg/kg/injection, schedule: Q01DX001 (ip), vehicle: saline).
Take `[Br][Pb]([Br])([c]1ccccc1)[c]1ccccc1`: the T/C runs as follows: under setting [3], 117 % of control; (dose: 100.0 mg/kg/injection, schedule: Q04DX003 (ip), vehicle: Klucel (hydroxypropylcellulose) (HPC)) 91 % of control; under setting [4], 98 % of control; (dose: 200.0 mg/kg/injection, schedule: Q04DX003 (ip), vehicle: Klucel (hydroxypropylcellulose) (HPC)) 100 % of control; (dose: 400.0 mg/kg/injection, schedule: Q04DX003 (ip), vehicle: Klucel (hydroxypropylcellulose) (HPC)) 94 % of control.
Take `CCCCNC(=O)c1n[se]nc1NC(N)=O`: the T/C reads like this: (dose: 25.0 mg/kg/injection, schedule: Q01DX Z (ip), vehicle: carboxymethylcellulose (CMC)) 91 % of control; (dose: 37.5 mg/kg/injection, schedule: Q01DX Z (ip), vehicle: carboxymethylcellulose (CMC)) 89 % of control; (dose: 50.0 mg/kg/injection, schedule: Q01DX Z (ip), vehicle: carboxymethylcellulose (CMC)) 90 % of control.
With `N=C(N)SCCN1CCCCC1`, the T/C by setting is: (dose: 75.0 mg/kg/injection, schedule: Q01DX001 (ip), vehicle: acetone) 102 % of control; (dose: 150.0 mg/kg/injection, schedule: Q01DX001 (ip), vehicle: acetone) 100 % of control.
